Data taken from ChEMBL document CHEMBL1201862, “PubChem BioAssay data set” (2004).
Active and inactive are the calls of the source.

What was measured:
BJ [1] = test: cells; format: functional, cell-based, Homo sapiens; details: Homo sapiens, BJ
BJ [2] = test: BJ-TERT fibroblast viability loss – cell-based, RAS-independent, luminescence, dose response (AID 1933); format: functional; details: Homo sapiens
BJ [3] = test: growth inhibition of engineered Ras-driven BJ cells – cell-based, alamar blue fluorescence, cherrypicked samples, dose response (AID 2631); format: functional; details: Homo sapiens;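 further: confirmatory dose-response assay in RAS-dependent BJ fibroblasts engineered with TERT, LT and ST, with cytotoxicity read by fluorescence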
Cytochrome P450 3A4 = Cytochrome P450 3A4 (Homo sapiens, UniProt P08684);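 further: CYP3A4 tested as one member of a cytochrome P450 panel screen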
Chain of Cytochrome P450 3A4 (P08684 whole entry): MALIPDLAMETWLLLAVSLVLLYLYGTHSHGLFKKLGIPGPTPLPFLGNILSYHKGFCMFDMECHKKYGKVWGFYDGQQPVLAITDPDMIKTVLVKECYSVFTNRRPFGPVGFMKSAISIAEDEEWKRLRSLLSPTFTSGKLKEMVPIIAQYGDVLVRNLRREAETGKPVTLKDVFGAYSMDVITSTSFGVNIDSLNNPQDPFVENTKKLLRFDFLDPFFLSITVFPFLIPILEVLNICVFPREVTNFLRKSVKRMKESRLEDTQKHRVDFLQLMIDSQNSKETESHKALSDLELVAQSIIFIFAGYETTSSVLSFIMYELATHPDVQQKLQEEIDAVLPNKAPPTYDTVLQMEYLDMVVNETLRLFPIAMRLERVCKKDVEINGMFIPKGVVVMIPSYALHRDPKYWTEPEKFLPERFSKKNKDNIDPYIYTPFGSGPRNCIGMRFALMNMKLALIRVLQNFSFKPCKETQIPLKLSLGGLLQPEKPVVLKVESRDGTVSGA

[4] = target: Peroxisome proliferator-activated receptor gamma/Nuclear receptor coactivator 3 (Homo sapiens, UniProt P37231); format: functional;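 further: agonist potency for raising coactivator recruitment to the receptor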
Chain of Peroxisome proliferator-activated receptor gamma/Nuclear receptor coactivator 3 (P37231 whole entry): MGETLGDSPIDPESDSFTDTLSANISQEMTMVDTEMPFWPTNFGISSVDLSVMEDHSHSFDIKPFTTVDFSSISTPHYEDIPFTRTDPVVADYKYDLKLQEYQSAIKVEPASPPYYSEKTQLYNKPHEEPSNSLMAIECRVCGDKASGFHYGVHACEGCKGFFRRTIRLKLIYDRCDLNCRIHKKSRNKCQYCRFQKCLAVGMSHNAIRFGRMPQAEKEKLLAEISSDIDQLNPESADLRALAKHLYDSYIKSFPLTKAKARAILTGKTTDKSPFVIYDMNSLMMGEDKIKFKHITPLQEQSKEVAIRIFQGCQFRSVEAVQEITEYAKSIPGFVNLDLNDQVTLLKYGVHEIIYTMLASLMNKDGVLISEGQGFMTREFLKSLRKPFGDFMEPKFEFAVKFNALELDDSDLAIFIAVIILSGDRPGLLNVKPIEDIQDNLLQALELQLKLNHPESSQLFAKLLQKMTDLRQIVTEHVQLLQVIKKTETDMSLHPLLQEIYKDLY
Chain of Peroxisome proliferator-activated receptor gamma/Nuclear receptor coactivator 3 (Q9Y6Q9 whole entry, further chain): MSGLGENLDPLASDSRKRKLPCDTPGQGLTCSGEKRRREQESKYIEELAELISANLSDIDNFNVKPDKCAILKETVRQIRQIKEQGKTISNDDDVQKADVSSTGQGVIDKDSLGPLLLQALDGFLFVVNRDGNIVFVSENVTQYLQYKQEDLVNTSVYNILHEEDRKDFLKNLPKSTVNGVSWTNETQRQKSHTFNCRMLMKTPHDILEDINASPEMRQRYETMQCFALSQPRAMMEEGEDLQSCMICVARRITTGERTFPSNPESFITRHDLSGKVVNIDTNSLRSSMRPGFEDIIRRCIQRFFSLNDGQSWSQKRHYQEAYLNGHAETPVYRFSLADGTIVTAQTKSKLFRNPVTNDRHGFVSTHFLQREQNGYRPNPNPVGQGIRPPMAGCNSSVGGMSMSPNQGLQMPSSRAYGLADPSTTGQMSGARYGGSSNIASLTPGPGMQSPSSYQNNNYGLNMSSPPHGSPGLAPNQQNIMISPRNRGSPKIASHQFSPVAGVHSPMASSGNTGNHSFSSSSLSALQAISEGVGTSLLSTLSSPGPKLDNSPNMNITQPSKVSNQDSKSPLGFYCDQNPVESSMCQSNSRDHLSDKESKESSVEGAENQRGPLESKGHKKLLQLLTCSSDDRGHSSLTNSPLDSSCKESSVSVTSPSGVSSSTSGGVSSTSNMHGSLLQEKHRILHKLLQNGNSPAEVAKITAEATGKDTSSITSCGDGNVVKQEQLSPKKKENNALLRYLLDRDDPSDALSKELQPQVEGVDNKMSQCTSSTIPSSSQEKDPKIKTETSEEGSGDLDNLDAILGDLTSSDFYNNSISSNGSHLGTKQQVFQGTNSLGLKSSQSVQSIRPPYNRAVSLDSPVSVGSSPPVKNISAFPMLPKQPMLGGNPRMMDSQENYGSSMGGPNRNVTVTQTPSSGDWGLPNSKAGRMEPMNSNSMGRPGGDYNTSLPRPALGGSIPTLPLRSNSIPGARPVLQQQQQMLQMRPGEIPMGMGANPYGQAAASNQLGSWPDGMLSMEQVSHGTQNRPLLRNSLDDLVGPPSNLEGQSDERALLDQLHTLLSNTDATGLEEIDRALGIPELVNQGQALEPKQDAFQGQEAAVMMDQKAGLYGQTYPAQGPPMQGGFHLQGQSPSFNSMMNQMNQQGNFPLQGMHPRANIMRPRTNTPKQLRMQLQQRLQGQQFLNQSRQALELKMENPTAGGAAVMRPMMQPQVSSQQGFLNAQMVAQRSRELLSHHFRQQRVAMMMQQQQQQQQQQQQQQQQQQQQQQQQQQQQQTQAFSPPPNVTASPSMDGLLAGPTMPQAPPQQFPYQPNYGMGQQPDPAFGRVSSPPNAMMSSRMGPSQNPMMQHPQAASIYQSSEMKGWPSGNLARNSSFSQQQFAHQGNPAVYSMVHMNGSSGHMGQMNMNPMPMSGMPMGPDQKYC

Paired box protein Pax-8 = Paired box protein Pax-8 (Homo sapiens, UniProt Q06710); test: PAX8 transcriptional activity inhibition in RMG-I – RMG-I cells, luciferase, cherry-pick, dose response (AID 687027); format: functional, cell-based;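 further: luciferase reporter driven by Pax8 target thyroperoxidase promoter measured by SteadyGlo luminescence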
Chain of Paired box protein Pax-8 (Q06710 whole entry): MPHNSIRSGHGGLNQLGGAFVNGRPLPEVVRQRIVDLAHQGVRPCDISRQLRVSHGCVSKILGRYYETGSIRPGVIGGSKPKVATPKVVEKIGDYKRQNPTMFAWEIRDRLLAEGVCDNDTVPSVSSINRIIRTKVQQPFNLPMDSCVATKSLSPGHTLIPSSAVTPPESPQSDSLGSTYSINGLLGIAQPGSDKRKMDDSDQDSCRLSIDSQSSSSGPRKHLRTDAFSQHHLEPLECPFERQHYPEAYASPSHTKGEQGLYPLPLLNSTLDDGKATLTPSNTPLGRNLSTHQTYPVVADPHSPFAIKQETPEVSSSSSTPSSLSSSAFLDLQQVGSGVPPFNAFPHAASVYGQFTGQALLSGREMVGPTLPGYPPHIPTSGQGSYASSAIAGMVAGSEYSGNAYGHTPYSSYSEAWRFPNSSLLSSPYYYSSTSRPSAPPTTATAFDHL

[5] = alpha-synuclein stem-loop luciferase translation blockers – H4 neuroglioma cells, luminescence, confirmation (AID 1988); format: functional, cell-based
[6] = target: Peroxisome proliferator-activated receptor gamma/Nuclear receptor coactivator 1 (Homo sapiens, UniProt P37231); format: functional;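 further: agonist potency as compounds enhance coactivator SRC-1 recruitment to PPARgamma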
BJ [7] = test: BJ-TERT-LT-ST fibroblast viability loss – cell-based, RAS-independent, luminescence, dose response (AID 1935); format: functional; details: Homo sapiens;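 further: BJ fibroblasts immortalized with TERT plus LT and ST oncogenes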
[8] = luciferase reporter signal suppression in cells – H4 neuroglioma cells, luminescence, dose response (AID 1990); format: functional, cell-based
[9] = target: Peroxisome proliferator-activated receptor gamma/Nuclear receptor coactivator 2 (Homo sapiens, UniProt P37231); format: functional;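 further: agonist potency for raising coactivator recruitment to the receptor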
Chain of Peroxisome proliferator-activated receptor gamma/Nuclear receptor coactivator 2 (P37231 whole entry): as the sequence (P37231 whole entry) above
Chain of Peroxisome proliferator-activated receptor gamma/Nuclear receptor coactivator 2 (Q15596 whole entry, further chain): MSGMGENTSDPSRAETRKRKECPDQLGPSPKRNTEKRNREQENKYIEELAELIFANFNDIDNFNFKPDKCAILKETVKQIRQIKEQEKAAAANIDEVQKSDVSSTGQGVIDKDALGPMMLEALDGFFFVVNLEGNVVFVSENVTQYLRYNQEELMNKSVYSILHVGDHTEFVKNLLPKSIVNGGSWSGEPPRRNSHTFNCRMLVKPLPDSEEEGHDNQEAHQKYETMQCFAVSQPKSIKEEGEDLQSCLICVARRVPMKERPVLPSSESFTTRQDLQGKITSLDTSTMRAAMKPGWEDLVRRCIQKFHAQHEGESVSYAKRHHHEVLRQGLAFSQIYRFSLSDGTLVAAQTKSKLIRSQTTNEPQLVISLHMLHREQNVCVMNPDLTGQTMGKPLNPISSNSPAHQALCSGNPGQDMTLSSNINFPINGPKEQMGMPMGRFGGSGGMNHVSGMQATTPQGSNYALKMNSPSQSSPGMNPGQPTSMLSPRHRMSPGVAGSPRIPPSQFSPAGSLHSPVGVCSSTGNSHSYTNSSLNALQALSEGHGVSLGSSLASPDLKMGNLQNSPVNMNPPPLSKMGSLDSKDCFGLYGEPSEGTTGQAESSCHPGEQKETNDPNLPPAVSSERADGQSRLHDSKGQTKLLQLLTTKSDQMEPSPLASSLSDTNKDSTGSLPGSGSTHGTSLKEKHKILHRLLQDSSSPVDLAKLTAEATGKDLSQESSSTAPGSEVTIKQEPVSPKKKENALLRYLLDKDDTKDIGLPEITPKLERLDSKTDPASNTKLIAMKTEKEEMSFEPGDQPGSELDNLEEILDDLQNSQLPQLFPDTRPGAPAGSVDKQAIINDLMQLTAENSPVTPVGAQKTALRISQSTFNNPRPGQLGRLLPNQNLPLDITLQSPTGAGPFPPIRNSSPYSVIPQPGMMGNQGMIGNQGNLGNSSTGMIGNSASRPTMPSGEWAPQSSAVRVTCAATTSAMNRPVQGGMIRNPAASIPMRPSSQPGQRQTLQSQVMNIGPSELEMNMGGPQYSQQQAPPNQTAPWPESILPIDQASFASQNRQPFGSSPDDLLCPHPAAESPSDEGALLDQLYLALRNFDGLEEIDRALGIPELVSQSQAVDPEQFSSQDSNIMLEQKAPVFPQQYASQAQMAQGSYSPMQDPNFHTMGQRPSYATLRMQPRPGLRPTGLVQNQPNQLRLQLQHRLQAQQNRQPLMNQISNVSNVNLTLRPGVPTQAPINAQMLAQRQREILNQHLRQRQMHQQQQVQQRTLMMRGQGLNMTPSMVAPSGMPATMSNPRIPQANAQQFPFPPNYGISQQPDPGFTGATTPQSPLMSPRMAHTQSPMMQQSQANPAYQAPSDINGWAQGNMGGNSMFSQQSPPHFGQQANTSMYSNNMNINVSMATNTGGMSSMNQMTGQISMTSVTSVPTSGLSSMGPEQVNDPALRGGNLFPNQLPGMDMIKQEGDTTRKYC

[10] = Luminescence Cell-Based Dose Response HTS to Identify Inhibitors of 5'UTR Stem-Loop Driven Prion Protein mRNA Translation in H4 Neuroglioblastoma Cells. [Related pubchem assays: 1827 (Project Summary), 1813 (Primary HTS)]; format: functional
[11] = DRD fibroblast viability loss – cell-based, non-viral oncogenic, luminescence, dose response (AID 1934); format: functional; details: Homo sapiens
Vero = test: cells; format: functional; details: Chlorocebus sabaeus
Protein RecA = target: T1, Protein RecA (Mycobacterium tuberculosis, UniProt P9WHJ3); test: Fluorescence Cell-Free Homogeneous Dose Retest to Identify Inhibitors of RecA-Intein Splicing Activity. [Related pubchem assays (depositor defined):AID2097, AID2223, AID489010, AID492950]; format: functional
T1 sequence (P9WHJ3 whole entry): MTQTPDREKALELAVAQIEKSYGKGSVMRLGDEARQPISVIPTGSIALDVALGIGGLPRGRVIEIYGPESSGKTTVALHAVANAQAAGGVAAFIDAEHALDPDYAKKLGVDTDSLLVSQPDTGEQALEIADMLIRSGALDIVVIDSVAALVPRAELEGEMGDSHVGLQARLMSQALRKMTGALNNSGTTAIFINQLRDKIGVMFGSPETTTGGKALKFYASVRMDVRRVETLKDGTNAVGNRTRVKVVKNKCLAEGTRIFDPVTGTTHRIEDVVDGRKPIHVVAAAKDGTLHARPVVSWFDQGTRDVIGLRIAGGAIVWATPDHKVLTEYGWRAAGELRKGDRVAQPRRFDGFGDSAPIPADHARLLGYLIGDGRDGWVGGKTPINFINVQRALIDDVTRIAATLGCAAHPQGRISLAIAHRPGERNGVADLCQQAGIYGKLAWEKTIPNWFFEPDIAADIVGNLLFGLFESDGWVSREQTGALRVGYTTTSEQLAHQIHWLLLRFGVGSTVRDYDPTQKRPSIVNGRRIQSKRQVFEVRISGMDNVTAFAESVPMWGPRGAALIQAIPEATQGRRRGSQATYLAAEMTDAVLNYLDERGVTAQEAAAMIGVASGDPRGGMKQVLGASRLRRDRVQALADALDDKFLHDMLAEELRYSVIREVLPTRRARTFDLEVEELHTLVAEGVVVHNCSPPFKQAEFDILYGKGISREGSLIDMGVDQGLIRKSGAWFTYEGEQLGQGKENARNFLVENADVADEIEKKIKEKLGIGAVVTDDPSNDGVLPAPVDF

[12] = target: T2, Replicative DNA helicase DnaB (Mycobacterium tuberculosis, UniProt P9WMR3); test: DnaB intein splicing inhibitors, dose response, biochemical, cell-free fluorescence (AID 449749); format: functional
T2 sequence (P9WMR3 whole entry): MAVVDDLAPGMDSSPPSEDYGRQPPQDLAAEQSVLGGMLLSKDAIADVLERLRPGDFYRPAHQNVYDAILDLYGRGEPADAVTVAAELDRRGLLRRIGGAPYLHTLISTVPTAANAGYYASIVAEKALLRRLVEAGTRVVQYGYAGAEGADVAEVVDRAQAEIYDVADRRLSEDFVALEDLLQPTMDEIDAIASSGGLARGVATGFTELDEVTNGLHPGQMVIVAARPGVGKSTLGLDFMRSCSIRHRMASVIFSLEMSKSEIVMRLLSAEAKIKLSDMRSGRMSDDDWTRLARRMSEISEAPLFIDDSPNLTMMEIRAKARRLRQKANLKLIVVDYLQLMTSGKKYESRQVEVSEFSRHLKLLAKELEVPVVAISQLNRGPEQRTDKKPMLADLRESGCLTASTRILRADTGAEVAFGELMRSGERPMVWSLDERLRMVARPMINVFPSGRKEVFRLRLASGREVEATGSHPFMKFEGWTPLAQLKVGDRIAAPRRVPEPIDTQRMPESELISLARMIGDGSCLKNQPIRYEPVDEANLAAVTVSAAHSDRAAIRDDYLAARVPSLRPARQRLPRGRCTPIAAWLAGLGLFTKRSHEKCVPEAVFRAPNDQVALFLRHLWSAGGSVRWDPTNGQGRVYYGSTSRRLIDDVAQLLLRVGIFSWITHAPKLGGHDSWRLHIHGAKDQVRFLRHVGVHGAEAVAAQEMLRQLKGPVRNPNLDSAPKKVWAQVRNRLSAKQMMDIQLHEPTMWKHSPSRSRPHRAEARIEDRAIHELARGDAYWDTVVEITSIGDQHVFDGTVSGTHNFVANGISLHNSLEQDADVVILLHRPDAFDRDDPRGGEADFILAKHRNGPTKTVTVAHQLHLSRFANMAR

[13] = target: Dual specificity tyrosine-phosphorylation-regulated kinase 1A (Rattus norvegicus, UniProt Q63470); format: biochemical, Homo sapiens
Large T antigen = Large T antigen (Simian virus 40, UniProt P03070); format: functional, Betapolyomavirus macacae;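 further: Confirmatory-stage PubChem screen for compounds that inhibit SV40 T antigen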
[14] = target: T3, Endoribonuclease toxin MazF (Escherichia coli K-12, UniProt P0AE70); test: substrate-only fluorescence increase artefacts – biochemical, single-stranded RNase substrate, counter-screen for MazEF activator project, dose response (AID 588502); format: functional
T3 sequence (P0AE70 whole entry): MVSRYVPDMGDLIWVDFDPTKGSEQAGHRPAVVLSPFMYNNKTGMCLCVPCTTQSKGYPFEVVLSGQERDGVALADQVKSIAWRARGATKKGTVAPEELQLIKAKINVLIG

[15] = target: T3, Endoribonuclease toxin MazF; test: activation of MazEF endoribonuclease cleavage – biochemical, fluorescence, single-stranded RNA substrate, uHTS hits, dose response (AID 588481); format: functional

| SMILES | EC50 (BJ [1]) | EC50 (BJ [2]) | EC50 (BJ [3]) | EC50 (BJ [7]) | EC50 [11] | EC50 [14] | EC50 [15] | further results |
| --- | --- | --- | --- | --- | --- | --- | --- | --- |
| FC(F)(F)c1nnc2c(Sc3ccc(Cl)cc3)nc3ccccc3n12 | 25.2 µM (active) | 3.28 µM (inconclusive) | 0.565 µM (active) | 5.54 µM (inconclusive) | 9.34 µM (inconclusive) |  |  | AC50 (Cytochrome P450 3A4): inconclusive; EC50 [4]: 32.3 µM (not active); AC50 (Paired box protein Pax-8): 1.27 µM (active); EC50 [5]: > 120 µM (not active); EC50 [6]: 24.3 µM (not active); EC50 [8]: > 120 µM (not active); EC50 [9]: 21.7 µM (not active); EC50 [10]: 9.77 µM (active) |
| COCCCNC1=NN=C(c2cc(C)n(Cc3ccco3)c2C)CS1 |  |  | 0.201 µM (active) |  |  |  |  | CC50 (Vero): 2.27 µM (active) |
| COc1cc(C=C2C(=O)c3ccccc3C2=O)ccc1O |  |  |  |  |  |  |  | EC50 (Protein RecA): 22.9 µM (active); AC50 [12]: > 380 µM (inactive); AC50 [13]: 0.585 µM (active); IC50 (Large T antigen): 15.1 µM (active) |
| O=C(COC(=O)c1ccccc1C(=O)N1CCN(c2ccccc2)CC1)NCc1ccccc1 |  |  |  |  |  | > 99 µM (inactive) | > 99 µM (inactive) |  |
| C[C@@H]1C=CC(=O)O[C@@H]1c1ccc(C(F)(F)F)cc1 | 5.53 µM (active) | 49.6 µM (active) | 0.409 µM (active) | 12.4 µM (active) | 2.27 µM (active) |  |  |  |
| CC(=O)N1CC[C+]([N-]NS(=O)(=O)c2cccc([N+](=O)[O-])c2)CC1 |  |  |  |  |  | 23.9 µM (inactive) | > 99 µM (inactive) |  |
